These results are taken from BindingDB's records for doi:10.1111/j.1747-0285.2012.01416.x (University of California San Diego, 2012).

The structures appear in SMILES notation. pIC50: −log10 of the molar value.

The target in this assay is Cruzipain (Trypanosoma cruzi, UniProt P25779). Put plainly: Enzymatic Assay. The source says: Enzymatic inhibition using cruzain.
Sequence of Cruzipain (P25779 whole entry): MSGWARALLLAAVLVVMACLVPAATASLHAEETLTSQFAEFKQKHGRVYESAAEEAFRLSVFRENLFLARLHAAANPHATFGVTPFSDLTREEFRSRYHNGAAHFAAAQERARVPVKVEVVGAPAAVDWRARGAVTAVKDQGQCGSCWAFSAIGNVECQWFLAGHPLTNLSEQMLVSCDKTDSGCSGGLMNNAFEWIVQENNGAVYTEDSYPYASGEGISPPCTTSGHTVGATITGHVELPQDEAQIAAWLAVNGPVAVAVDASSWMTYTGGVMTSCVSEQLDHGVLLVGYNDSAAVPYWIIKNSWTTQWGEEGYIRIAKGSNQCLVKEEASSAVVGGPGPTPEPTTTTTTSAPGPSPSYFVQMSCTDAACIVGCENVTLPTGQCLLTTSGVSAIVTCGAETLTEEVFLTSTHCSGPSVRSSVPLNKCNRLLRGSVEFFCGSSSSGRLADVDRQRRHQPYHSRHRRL

What is called pIC50 is the negative decadic logarithm of the IC50, by convention in mol/L. A higher pIC50 goes with a small IC50. The compound `Cn1ccc(=Nc2ccc(NC(=O)c3ccc(N=c4ccn(C)c5ccc([N+](=O)[O-])cc45)cc3)cc2)cc1` [4-[(1-methyl-6-nitro-quinolin-4-ylidene)amino]-N-[4-[(1-methylpyridin-4-ylidene)amino]phenyl]benzamide] showed a negative-log IC50 (pIC50) of 4.20.

For the compound `CO[C@H]1[C@@H](OC(=O)c2ccc(C)[nH]2)[C@@H](O)C(Oc2ccc3c(O)c(NC(=O)c4ccc(O)c(CC=C(C)C)c4)c(=O)oc3c2Cl)OC1(C)C` (some centres not stated) [NSC227186], the pIC50 is 4.80.
